Reference: BindingDB's records for doi:10.1021/jm070130j (Johnson & Johnson Pharmaceutical, 2007)

Molecular target: Free fatty acid receptor 1 (Homo sapiens, UniProt O14842)
Assay: GPR40 FDSS Assay
Conditions: 37 °C
Procedure: Human embryonic kidney (HEK293) cells expressing human GPR40 receptors were grown in Dulbecco modified Eagles medium (DMEM)/F12 media supplemented with 10% fetal FBS and glutamine. Changes in ligand-induced calcium-dependent intracellular fluorescence were measured with a fluorometric plate reader (FDSS; Hamamatsu Corp., Bridgewater, NJ).

Free fatty acid receptor 1, sequence (O14842 whole entry): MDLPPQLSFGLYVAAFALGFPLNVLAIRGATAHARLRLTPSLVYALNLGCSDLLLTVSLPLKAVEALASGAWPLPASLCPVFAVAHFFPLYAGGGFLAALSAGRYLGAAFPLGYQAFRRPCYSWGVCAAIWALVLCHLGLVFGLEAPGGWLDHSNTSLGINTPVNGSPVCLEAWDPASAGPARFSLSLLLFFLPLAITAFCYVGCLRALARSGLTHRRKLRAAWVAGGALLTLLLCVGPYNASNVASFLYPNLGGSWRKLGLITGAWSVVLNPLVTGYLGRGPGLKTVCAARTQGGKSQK

Compound | EC50 [nM]
CCCCOc1ccc(C(CC(=O)O)c2cccs2)cc1 (stereo not given) [3-(4-butoxyphenyl)-3-(thiophen-2-yl)propanoic acid] | 1290
CCCCOc1ccc(C(CC(=O)O)c2ccc(C(F)(F)F)cc2)cc1 (stereo not given) [3-(4-butoxyphenyl)-3-[4-(trifluoromethyl)phenyl]propanoic acid] | > 10000
CCCCOc1ccc(C(CC(=O)O)c2ccccc2)cc1 (stereo not given) [3-(4-butoxyphenyl)-3-phenylpropanoic acid] | 1200
CCCCCOc1cccc(C(CC(=O)O)c2ccccc2)c1 (stereo not given) [3-[3-(pentyloxy)phenyl]-3-phenylpropanoic acid] | > 10000
CCC(C)COc1ccc(C(CC(=O)O)c2ccccc2)cc1 (stereo not given) [3-[4-(2-methylbutoxy)phenyl]-3-phenylpropanoic acid] | 300
CC(C)CCOc1ccc(C(CC(=O)O)c2ccccc2)cc1 (stereo not given) [3-[4-(3-methylbutoxy)phenyl]-3-phenylpropanoic acid] | 1860
CCCCCOc1ccc(C(CC(=O)O)c2ccccc2)cc1 (stereo not given) [3-[4-(pentyloxy)phenyl]-3-phenylpropanoic acid] | 2970
CCCOc1ccc(C(CC(=O)O)c2ccccc2)cc1 (stereo not given) [3-phenyl-3-(4-propoxyphenyl)propanoic acid] | 4800
C/C=C/COc1ccc(C(CC(=O)O)c2ccccc2)cc1 (stereo not given) [3-{4-[(2E)-but-2-en-1-yloxy]phenyl}-3-phenylpropanoic acid] | 2710
CCCCOc1ccc(C(CCCC(=O)O)c2ccccc2)cc1 (stereo not given) [5-(4-butoxyphenyl)-5-phenylpentanoic acid] | > 10000
